# Measurements from patent publication US20250304644A1, “PEPTIDES TRIPLE AGONISTS OF GIP, GLP-1 AND GLP-2” (BAINAN BIOTECH APS, priority 2021, published 2025).
# Where “and” joins values, the source holds several entries; their conditions need not be identical. Equal values may be shown once. Read-outs that look alike come from different tables or passages of the source. *1 amine or outer side, *2 acyl side, *3 side chain or, on linkers, in order; H or OH if unused. Where a SMILES comes first, the peptide text is derived from it. Where no end group is shown, it is not given here. Side-chain parts run from the residue outwards. [ ]: non-standard residue; d: D form. The star is where a group is joined. C18 diacid = O=C(O)CCCCCCCCCCCCCCCCC(=O)*; γGlu = O=C(O)[C@H](CCC(=O)[*:2])N[*:1]; AEEA = NCCOCCOCC(=O)O; Aib = CC(C)(N)C(=O)O
# Legend:
# Format in all cases: cell-based
# human GIPR = target: T1, human GIPR (Homo sapiens, UniProt P48546); test: cAMP assay (HitHunter) in transiently transfected COS-7 cells expressing human GIPR; conditions: for Emax: COS-7, normalized to highest concentration of the endogenous ligand, read-out: Efficacy GIPR (Emax)
# T1 construct: host or cells: COS-7
# T1 sequence (P48546 22-466): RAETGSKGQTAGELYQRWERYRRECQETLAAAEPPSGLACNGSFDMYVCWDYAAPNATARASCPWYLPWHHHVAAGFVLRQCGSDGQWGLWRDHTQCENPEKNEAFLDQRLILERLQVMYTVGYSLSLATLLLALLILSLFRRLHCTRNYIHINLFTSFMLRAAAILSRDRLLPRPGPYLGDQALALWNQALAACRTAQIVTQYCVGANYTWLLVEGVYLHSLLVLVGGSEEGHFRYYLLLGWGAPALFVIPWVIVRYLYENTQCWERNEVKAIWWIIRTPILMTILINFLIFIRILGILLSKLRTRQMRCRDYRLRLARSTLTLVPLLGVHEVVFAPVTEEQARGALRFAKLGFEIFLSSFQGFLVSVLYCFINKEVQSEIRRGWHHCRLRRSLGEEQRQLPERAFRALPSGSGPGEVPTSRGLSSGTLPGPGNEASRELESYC
# human GLP-2R = target: T2, human GLP-2R (Homo sapiens, UniProt O95838); test: cAMP assay (HitHunter) in transiently transfected COS-7 cells expressing human GLP-2R; conditions: for Emax: COS-7, normalized to highest concentration of the endogenous ligand, read-out: Efficacy GLP-2R (Emax); for EC50: cAMP, COS-7 cells, human GLP-2R
# T2 construct: host or cells: COS-7
# T2 sequence (O95838 1-553): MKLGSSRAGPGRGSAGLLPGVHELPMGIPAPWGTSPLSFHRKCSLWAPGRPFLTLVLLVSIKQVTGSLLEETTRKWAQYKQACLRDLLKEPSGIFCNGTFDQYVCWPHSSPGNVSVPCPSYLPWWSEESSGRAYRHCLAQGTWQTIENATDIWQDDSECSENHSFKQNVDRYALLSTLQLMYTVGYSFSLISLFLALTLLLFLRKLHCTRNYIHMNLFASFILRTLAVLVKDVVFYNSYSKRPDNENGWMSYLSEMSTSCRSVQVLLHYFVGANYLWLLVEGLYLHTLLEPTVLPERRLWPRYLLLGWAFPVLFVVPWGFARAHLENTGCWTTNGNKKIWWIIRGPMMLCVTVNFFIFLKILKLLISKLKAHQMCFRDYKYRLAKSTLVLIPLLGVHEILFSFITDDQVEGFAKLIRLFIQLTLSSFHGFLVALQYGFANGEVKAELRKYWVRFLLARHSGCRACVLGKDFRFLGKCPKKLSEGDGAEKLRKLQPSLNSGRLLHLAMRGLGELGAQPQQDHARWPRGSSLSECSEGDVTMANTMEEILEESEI
# human GLP-1R = target: T3, human GLP-1R (Homo sapiens, UniProt P43220); test: cAMP assay (HitHunter) in transiently transfected COS-7 cells expressing human GLP-1R; conditions: for Emax: COS-7, normalized to highest concentration of the endogenous ligand, read-out: Efficacy GLP-1R (Emax); for EC50: cAMP, COS-7 cells, human GLP-1R
# T3 construct: host or cells: COS-7
# [1] = target: human glucagon receptor (GCGR) (Homo sapiens, UniProt P47871); test: Gs activation measured as cAMP accumulation on human glucagon receptor (FIG. 1 radar plot); conditions: read-out: −p Log EC50 on human glucagon receptor (GCGR) (converted)
# From the text: Here, the compounds 20, 21, 22, 28, 30, 31,32, 33, 34, 35 are shown in terms of their potencies in Gs activation, measured as CAMP accumulation, depicted in a radar plot. The numbers refer to −p Log EC50 values. […] The outer rings correspond to higher potencies, the inner rings correspond to lower potencies.
# human SNAP-tagged GIPR = target: T4, human SNAP-tagged GIPR (Homo sapiens, UniProt P48546); test: Receptor internalization assay, HEK293A cells expressing human SNAP-tagged GIPR; conditions: for Absolute hGIPR internalization (AUC): AUC of sigmoid curves up to 1 μM, 60 minutes at 37° C.; for Relative hGIPR internalization (%): relative to hGIP 1-42 = 100
# T4 construct: host or cells: HEK293A
# T4 sequence (P48546 22-466): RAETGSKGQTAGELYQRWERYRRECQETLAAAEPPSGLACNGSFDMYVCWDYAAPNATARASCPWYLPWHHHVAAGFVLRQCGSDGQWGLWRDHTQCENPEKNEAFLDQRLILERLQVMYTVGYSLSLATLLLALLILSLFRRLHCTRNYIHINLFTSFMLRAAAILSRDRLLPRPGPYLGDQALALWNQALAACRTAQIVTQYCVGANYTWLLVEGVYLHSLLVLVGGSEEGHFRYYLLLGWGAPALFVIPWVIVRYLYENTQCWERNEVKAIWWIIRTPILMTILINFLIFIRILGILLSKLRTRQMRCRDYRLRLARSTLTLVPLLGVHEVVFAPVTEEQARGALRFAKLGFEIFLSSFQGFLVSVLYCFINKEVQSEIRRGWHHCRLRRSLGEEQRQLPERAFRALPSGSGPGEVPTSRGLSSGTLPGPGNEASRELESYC
# human SNAP-tagged GLP-1R = target: T5, human SNAP-tagged GLP-1R (Homo sapiens, UniProt P43220); test: Receptor internalization assay, HEK293A cells expressing human SNAP-tagged GLP-1R; conditions: for Absolute hGLP-1R internalization (AUC): AUC of sigmoid curves up to 1 μM, 60 minutes at 37° C.; for Relative hGLP-1R internalization (%): relative to hGLP-1 = 100
# T5 construct: expressed in transfected cells; host or cells: HEK293A
# human SNP-tagged GLP-2R = target: T6, human SNP-tagged GLP-2R (Homo sapiens, UniProt O95838); test: Receptor internalization assay, HEK293A cells expressing human SNAP-tagged GLP-2R; conditions: for Absolute hGLP-2R internalization (AUC): AUC of sigmoid curves up to 1 μM, 60 minutes at 37° C.; for Relative hGLP-2R internalization (%): relative to native ligand = 100
# T6 construct: expressed in transfected cells; host or cells: HEK293A
# T6 sequence (O95838 1-553): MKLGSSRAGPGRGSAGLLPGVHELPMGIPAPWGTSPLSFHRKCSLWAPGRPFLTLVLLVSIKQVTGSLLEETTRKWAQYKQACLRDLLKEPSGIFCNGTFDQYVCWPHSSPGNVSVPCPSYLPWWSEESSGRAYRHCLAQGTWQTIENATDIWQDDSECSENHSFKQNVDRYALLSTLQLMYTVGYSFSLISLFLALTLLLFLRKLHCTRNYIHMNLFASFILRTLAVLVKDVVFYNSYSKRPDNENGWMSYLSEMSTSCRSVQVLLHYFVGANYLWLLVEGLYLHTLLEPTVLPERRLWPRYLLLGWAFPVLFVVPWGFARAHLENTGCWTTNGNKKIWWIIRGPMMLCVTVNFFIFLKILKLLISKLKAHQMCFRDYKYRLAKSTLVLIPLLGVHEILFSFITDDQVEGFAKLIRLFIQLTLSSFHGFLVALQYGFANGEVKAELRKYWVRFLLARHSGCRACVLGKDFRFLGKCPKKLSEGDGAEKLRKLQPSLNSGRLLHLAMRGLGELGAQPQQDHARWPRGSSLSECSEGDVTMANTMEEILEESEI
# T5 sequence (P43220 24-463): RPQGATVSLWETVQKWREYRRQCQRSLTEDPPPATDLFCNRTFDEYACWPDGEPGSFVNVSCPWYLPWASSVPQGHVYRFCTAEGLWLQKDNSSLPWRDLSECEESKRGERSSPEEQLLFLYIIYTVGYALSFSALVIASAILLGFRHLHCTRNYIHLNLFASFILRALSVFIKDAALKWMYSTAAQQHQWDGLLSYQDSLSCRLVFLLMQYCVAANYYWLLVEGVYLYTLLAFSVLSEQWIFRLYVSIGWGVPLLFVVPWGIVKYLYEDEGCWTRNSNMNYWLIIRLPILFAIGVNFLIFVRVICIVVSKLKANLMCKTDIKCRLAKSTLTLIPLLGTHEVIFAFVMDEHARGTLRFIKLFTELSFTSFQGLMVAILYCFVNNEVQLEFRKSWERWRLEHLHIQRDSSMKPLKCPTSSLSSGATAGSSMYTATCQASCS
# T3 sequence (P43220 24-463): as above
# Chain of human glucagon receptor (GCGR) (P47871 26-477): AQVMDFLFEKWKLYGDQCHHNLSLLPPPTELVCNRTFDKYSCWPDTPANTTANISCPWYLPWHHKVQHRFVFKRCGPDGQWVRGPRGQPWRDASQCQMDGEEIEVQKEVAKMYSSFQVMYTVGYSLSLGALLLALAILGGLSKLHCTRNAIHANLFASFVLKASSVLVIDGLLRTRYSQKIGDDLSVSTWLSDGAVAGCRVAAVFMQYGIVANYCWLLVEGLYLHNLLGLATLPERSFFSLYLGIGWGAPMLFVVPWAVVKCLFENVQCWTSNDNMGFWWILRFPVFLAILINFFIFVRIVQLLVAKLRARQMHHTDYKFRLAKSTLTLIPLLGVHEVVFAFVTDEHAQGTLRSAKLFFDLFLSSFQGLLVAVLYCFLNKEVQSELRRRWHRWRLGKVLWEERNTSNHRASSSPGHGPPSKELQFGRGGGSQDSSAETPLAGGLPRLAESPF
Compound,Emax (human GIPR) [%],Emax (human GLP-2R) [%],EC50 (human GLP-2R; read-out: EC50 (nM) GLP-2R) [nM],Emax (human GLP-1R) [%],EC50 (human GLP-1R; read-out: EC50 (nM) GLP-1R) [nM],EC50 [1] [nM],Absolute hGIPR internalization (AUC) (human SNAP-tagged GIPR),Relative hGIPR internalization (%) (human SNAP-tagged GIPR),Absolute hGLP-1R internalization (AUC) (human SNAP-tagged GLP-1R),Relative hGLP-1R internalization (%) (human SNAP-tagged GLP-1R),Absolute hGLP-2R internalization (AUC) (human SNP-tagged GLP-2R),Relative hGLP-2R internalization (%) (human SNP-tagged GLP-2R),"EC50 (human GIPR; cAMP, COS-7 cells, human GIPR) [nM]",EC50 (human GLP-2R; read-out: logEC50 GLP-2R (converted)) [nM],EC50 (human GLP-1R; read-out: logEC50 GLP-1R (converted)) [nM],GIPR internalization (in words) (human SNAP-tagged GIPR; compared to native GIP),GLP-1R internalization (in words) (human SNAP-tagged GLP-1R; compared to native GLP-1),GLP-2R internalization (in words) (human SNP-tagged GLP-2R; compared to native GLP-2)
CC[C@H](C)[C@H](NC(=O)[C@H](Cc1ccccc1)NC(=O)[C@H](CC(=O)O)NC(=O)[C@H](CCCNC(=N)N)NC(=O)[C@H](C)NC(=O)[C@H](C)NC(=O)[C@H](CC(C)C)NC(=O)[C@H](C)NC(=O)[C@H](CC(=O)O)NC(=O)[C@H](CC(C)C)NC(=O)[C@@H](NC(=O)[C@@H](NC(=O)[C@H](CO)NC(=O)[C@H](Cc1ccc(O)cc1)NC(=O)[C@H](CC(=O)O)NC(=O)[C@H](CO)NC(=O)[C@@H](NC(=O)[C@H](Cc1ccccc1)NC(=O)[C@@H](NC(=O)CNC(=O)[C@H](CC(=O)O)NC(=O)C(C)(C)NC(=O)[C@@H](N)Cc1c[nH]cn1)[C@@H](C)O)[C@@H](C)CC)[C@@H](C)O)[C@@H](C)CC)C(=O)N[C@@H](CC(N)=O)C(=O)N[C@@H](Cc1c[nH]c2ccccc12)C(=O)N[C@@H](CC(C)C)C(=O)N[C@H](C(=O)N[C@@H](CCC(N)=O)C(=O)N[C@H](C(=O)N[C@@H](CCCCN)C(=O)N[C@H](C(=O)N[C@H](C(=O)N[C@@H](CCCCNC(=O)COCCOCCNC(=O)COCCOCCNC(=O)CC[C@H](NC(=O)CCCCCCCCCCCCCCCCC(=O)O)C(=O)O)C(=O)O)[C@@H](C)O)[C@@H](C)CC)[C@@H](C)O)[C@@H](C)CC [Compound 28] (H-H[Aib]DGTFISDYSTILDALAARDFINWLIQTKITK([AEEA-AEEA-γGlu-C18 diacid])-OH; N-terminus assumed),119,89,2.2,102,3.98,> 100,21.7,58% and 59%,0.96,1.14,12.0,24.8,,,,,,
CC[C@H](C)[C@H](NC(=O)[C@H](Cc1ccccc1)NC(=O)[C@H](CC(=O)O)NC(=O)[C@H](CCCNC(=N)N)NC(=O)[C@H](C)NC(=O)[C@H](C)NC(=O)[C@H](CC(C)C)NC(=O)[C@H](CC(N)=O)NC(=O)[C@H](CC(=O)O)NC(=O)[C@H](CC(C)C)NC(=O)[C@@H](NC(=O)[C@@H](NC(=O)[C@H](CO)NC(=O)[C@H](Cc1ccc(O)cc1)NC(=O)[C@H](CC(=O)O)NC(=O)[C@H](CO)NC(=O)[C@@H](NC(=O)[C@H](Cc1ccccc1)NC(=O)[C@@H](NC(=O)CNC(=O)[C@H](CC(=O)O)NC(=O)[C@H](C)NC(=O)[C@@H](N)Cc1c[nH]cn1)[C@@H](C)O)[C@@H](C)CC)[C@@H](C)O)[C@@H](C)CC)C(=O)N[C@@H](CC(N)=O)C(=O)N[C@@H](Cc1c[nH]c2ccccc12)C(=O)N[C@@H](CC(C)C)C(=O)N[C@H](C(=O)N[C@@H](CCC(N)=O)C(=O)N[C@H](C(=O)N[C@@H](CCCCN)C(=O)NCC(=O)N[C@@H](CCCCN)C(=O)N[C@@H](CCCCN)C(=O)N[C@@H](CCCCNC(=O)COCCOCCNC(=O)COCCOCCNC(=O)CC[C@H](NC(=O)CCCCCCCCCCCCCCCCC(=O)O)C(=O)O)C(=O)O)[C@@H](C)O)[C@@H](C)CC [Compound 34] (H-HADGTFISDYSTILDNLAARDFINWLIQTKGKKK([AEEA-AEEA-γGlu-C18 diacid])-OH; N-terminus assumed),103,91,,97,,,14.7,,6.0,,8.0,,,,,,,
HADGTFTSDYSIILDK([AEEA-AEEA-γGlu-C18 diacid])LAARDFINWLIQTKGKKNDWKHNITQ-OH [Compound 20],112,100,,112,,> 100,14.2,38%,91.8,109.14,39.4,81.0,0.126,0.316,0.0398,reduced internalization compared to native GIP,comparable to native GLP-1 and GLP-2,comparable to native GLP-1 and GLP-2
